Measurements: patent publication US12234208B2, “3,4-dihydroxy-n-(1′-benzyl-2′-hydroxyethyl)-2-methylpyridine chloride, and synthesis and use thereof” (HANGZHOU ZEDE PHARMA-TECH CO. LTD., priority 2020, dated 2025)
Entries after “also recorded” stand apart in the source; their conditions may differ.

Experiments:
chronic MPTP mouse model [1] = experiment: Traction test in chronic MPTP mouse model; format: in vivo, C57/BL mice
Excerpt: Injection was implemented every 3.5 days for 5 weeks. MPTP was converted into metabolite MPP^+ by monoamine oxidase B in glial cells after crossing the blood-brain barrier. Due to its high affinity for dopamine transporters, MPP^+ can easily enter dopaminergic neurons. By inhibiting the toxic effect of the mitochondrial complex I, it can cause oxidative stress and break intracellular calcium homeostasis, thus causing the apoptosis or necrosis of dopaminergic neurons, and finally achieving the goal of simulating PD. Probenecid was used to prevent the rapid clearance and excretion of MPTP in the brain and kidneys. In the process of model preparation, the amount of probenecid had no significant influence on the content of the dopamine in the brain. After modeling, the mice were administrated (p.o.) with the drug for one month. The two forepaws of the mice were suspended on a horizontal metal wire (5 mm in diameter and 30 cm from the ground), and the time for mice to fall from the metal wire was recorded, wherein a time over 60 seconds was counted as 60 seconds. The mice were trained twice a day before the test. […] Finally, the scores were calculated and the time for the mice to fall from the metal wire were recorded, wherein a time over 60 seconds was counted as 60 seconds.

chronic MPTP mouse model [2] = experiment: Morris water maze test in chronic MPTP mouse model; format: in vivo, C57/BL mice; settings: Compound A 100 mg/kg/d p.o. for one month; FIG. 2; 100 mg/kg/day
Description: A chronic MPTP (1-methyl-4-phenyl-1,2,3,6-tetrahydropyridine) mouse model was prepared to simulate PD. 250 mg/kg probenecid was intraperitoneally injected into the mice and then 25 mg/kg MPTP was intraperitoneally injected 0.5 hour later. Injection was implemented every 3.5 days for 5 weeks. MPTP was converted into metabolite MPP^+ by monoamine oxidase B in glial cells after crossing the blood-brain barrier. Due to its high affinity for dopamine transporters, MPP^+ can easily enter dopaminergic neurons. […]
The Morris water maze test can measure the changes in cognitive and memory ability. […] A camera with a display system was placed above the water maze, and the computer automatically tracked the timing and recorded the swimming track. […] The videos of the swimming path were recorded by the camera and computer, and the time of finding the platform from the entry point, namely the latency of escaping to the platform, was recorded. […] If they could not find and climb onto the platform in 90 seconds, the mice were artificially guided to find the platform and stay on the platform for 10 seconds, and the latency was recorded as 90 seconds. […] The latency was calculated on the average of four training sessions per day. […]

Cc1c(O)c(O)cc[n+]1[C@@H](CO)Cc1ccccc1 [Compound A, (R)-3,4-dihydroxyl-N-(1′-benzyl-2′-hydroxyethyl)-2-methyl pyridine chloride]
suspension time compared with the chronic MPTP model control group (chronic MPTP mouse model [1]; Compound A 25 mg/kg/d p.o. for one month after modeling): no significant difference | suspension score compared with the chronic MPTP model control group (chronic MPTP mouse model [1]; Compound A 25 mg/kg/d p.o. for one month, FIG. 1): increased | suspension time compared with the chronic MPTP model control group (chronic MPTP mouse model [1]; Compound A 100 mg/kg/d p.o. for one month after modeling): no significant difference | muscle strength and coordination (conclusion) (chronic MPTP mouse model [1]; chronic MPTP mouse model, dose not given): tendency to improve muscle strength and coordination | cognitive function of PD model animals (water maze latency) (chronic MPTP mouse model [2]): may improve the cognitive function; also recorded: partially improve the cognitive function

CCCN[C@H]1CCc2nc(N)sc2C1 [Pramipexol, reference compound]
suspension time compared with the chronic MPTP model (chronic MPTP mouse model [1]; Pramipexol 0.075 mg/kg/d p.o. for one month after modeling): decreased
